Patent US20200345862A1, “TRANSITION METAL-BASED FUNCTIONAL MOIETIES FOR PREPARING CELL TARGETING CONJUGATES” (priority 2017, published 2020)
Where two headings read alike, the source gives them in different places.

Conditions: HEPES pH 8.1, 47° C., 4 h
Protocol: To a mixture of water (101 μL) and 200 mM HEPES buffer (12.3 μL, pH 8.1) containing different concentrations of halide salts (0, 100, 500, 1000, and 2000 mM NaCl (for 4a; pH 8.1; the final concentrations of NaCl in the reaction mixtures were 0, 10, 50, 100, and 200 mM, respectively) or 0, 100, and 500 mM NaBr (for 5d; pH 8.1; the final concentrations of NaBr in the reaction mixtures were 0, 10, and 50 mM, respectively) or 0 and 100 mM NaI (for 6k; pH 8.1; the final concentrations of NaI in the reaction mixtures were 0 and 10 mM, respectively), [PtL2((Fe)DFO-suc-pip)(ethane-1,2-diamine)]^+ TFA^− (4a (L2=Cl), 5d (L2=Br) or 6k (L2=I)) (10.0 μL, 5 mM in 20 mM NaCl (4a) or 5 mM in water (5d and 6k), 5.0 eq.) was added. The samples were incubated in a thermoshaker at 47° C. for 1 h, 2 h, and 4 h, followed by the HPLC analysis at 430 nm.

Substance | concentration of the semi-final product after incubation (stability) ([NaBr]=50 mM, FIG. 5) [%] | concentration of the semi-final product after incubation (stability) ([NaI]=10 mM, FIG. 6) [%]
[(Fe)DFO-pip-PtBr(ethane-1,2-diamine)]^+ TFA^− [5d] | 95 | 
[Pt((Fe)DFO-suc-pip)(ethane-1,2-diamine)I]^+ TFA^− [6k] |  | 98
